Results reported in patent US8530504B2, “Pyrazolothiazole compound” (Eisai R&D Management Co., Ltd., priority 2009, dated 2013).

Molecular target: human CRFR1 (Homo sapiens (Human), UniProt P34998)
Assay: CRFR1 Binding Test;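 note: nonspecific binding was determined with a 4,000-fold excess of unlabelled sauvagine and subtracted from every reading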
Settings: competition with 100 pM 125I-CRF, SPA method, membrane fraction of human CRFR1-expressing HEK293 cells; read-out: CRF1 receptor binding capacity IC50

Chain of human CRFR1 (P34998 24-415): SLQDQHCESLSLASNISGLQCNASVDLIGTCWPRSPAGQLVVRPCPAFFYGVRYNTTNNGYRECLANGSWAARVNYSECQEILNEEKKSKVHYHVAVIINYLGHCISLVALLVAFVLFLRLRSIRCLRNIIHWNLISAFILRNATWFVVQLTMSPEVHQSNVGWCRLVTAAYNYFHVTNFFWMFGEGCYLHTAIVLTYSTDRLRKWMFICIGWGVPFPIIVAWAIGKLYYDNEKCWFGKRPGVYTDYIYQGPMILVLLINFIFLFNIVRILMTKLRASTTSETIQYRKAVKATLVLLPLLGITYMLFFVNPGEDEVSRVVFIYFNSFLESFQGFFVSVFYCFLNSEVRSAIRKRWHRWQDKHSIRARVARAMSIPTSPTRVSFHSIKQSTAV

Structure (SMILES)	IC50
COCc1cc(OC)c(-c2c(SC)sc3c(N(CC4CCOCC4)CC4CC4)c(C)nn23)c(OC)c1 [Example 1, N-(Cyclopropylmethyl)-3-[2,6-dimethoxy-4-(methoxymethyl)phenyl]-6-methyl-2-(methylthio)-N-(tetrahydro-2H-pyran-4-ylmethyl)pyrazolo[5,1-b][1,3]thiazole-7-amine]	93 nM
CCCCN(CC1COCOC1)c1c(OC)nn2c(-c3c(OC)cc(COC)cc3OC)csc12 [Example 12, Butyl-[3-(2,6-dimethoxy-4-methoxymethyl-phenyl)-6-methoxy-pyrazolo[5,1-b][1,3]thiazol-7-yl)-[1,3]dioxan-5-ylmethyl-amine]	71 nM
COCCCN(c1c(OC)nn2c(-c3c(OC)cc(COC)cc3OC)csc12)C1CCC1 [Example 62, N-Cyclobutyl-3-[2,6-dimethoxy-4-(methoxymethyl)phenyl]-6-methoxy-N-(3-methoxypropyl)pyrazolo[5,1-b][1,3]thiazole-7-amine]	73 nM
COc1cc(Cl)cc(OC)c1-c1csc2c(N(CC3CC3)CC3CCOC3)c(OC)nn12 (stereo not drawn) [Example 30, 3-(4-Chloro-2,6-dimethoxyphenyl)-N-(cyclopropylmethyl)-6-methoxy-N-(tetrahydrofuran-3-ylmethyl)pyrazolo[5,1-b][1,3]thiazole-7-amine]	49 nM
COc1cc(C#N)cc(OC)c1-c1csc2c(N(CC3CC3)CC3C4COCC43)c(OC)nn12 (single isomer, unassigned; diastereomer 1) [Example 100]	89 nM
COCc1cc(OC)c(-c2csc3c(N(C4CCC4)C4CCOC4)c(OC)nn23)c(OC)c1 (stereo not drawn) [Example 67, N-Cyclobutyl-3-[2,6-dimethoxy-4-(methoxymethyl)phenyl]-6-methoxy-N-(tetrahydrofuran-3-yl)pyrazolo[5,1-b][1,3]thiazole-7-amine]	52 nM
COc1cc(C(C)OC)cc(OC)c1-c1csc2c(N(CC3CC3)CC3CCOC3)c(OC)nn12 (stereo not drawn) [Example 19, N-(Cyclopropylmethyl)-3-[2,6-dimethoxy-4-(1-methoxyethyl)phenyl]-6-methoxy-N-(tetrahydrofuran-3-ylmethyl)pyrazolo[5,1-b][1,3]thiazole-7-amine]	52 nM
COCc1cc(OC)c(-c2csc3c(N(CC4CCOC4)CC4CC(F)(F)C4)c(OC)nn23)c(OC)c1 (stereo not drawn) [Example 37, N-[(3,3-Difluorocyclobutyl)methyl]-3-[2,6-dimethoxy-4-(methoxymethyl)phenyl]-6-methoxy-N-(tetrahydrofuran-3-ylmethyl)pyrazolo[5,1-b][1,3]thiazole-7-amine]	95 nM
CCCN(c1c(OC)nn2c(-c3c(OC)cc(CC)cc3OC)csc12)C1CCOCC1 [Example 22, [3-(4-Ethyl-2,6-dimethoxyphenyl)-6-methoxypyrazolo[5,1-b][1,3]thiazol-7-yl]-propyl-(tetrahydro-pyran-4-yl)amine]	64 nM
CCCN(c1c(OC)nn2c(-c3c(OC)cc(COC)cc3OC)c(C)sc12)C1CCOCC1 [Example 7, [3-(2,6-Dimethoxy-4-methoxymethyl-phenyl)-6-methoxy-2-methyl-pyrazolo[5,1-b][1,3]thiazol-7-yl]-propyl-(tetrahydro-pyran-4-yl)-amine]	94 nM
CCCN(c1c(OC)nn2c(-c3c(OC)cc(COC(C)C)cc3OC)csc12)C1CCOCC1 [Example 68, [3-(4-Isopropoxymethyl-2,6-dimethoxyphenyl)-6-methoxy-pyrazolo[5,1-b][1,3]thiazol-7-yl]-propyl-(tetrahydro-pyran-4-yl)-amine]	77 nM
COc1cc(C2CC2)cc(OC)c1-c1csc2c(N(CC3CC3)CC3CCOC3)c(OC)nn12 (stereo not drawn) [Example 60, 3-(4-Cyclopropyl-2,6-dimethoxyphenyl)-N-(cyclopropylmethyl)-6-methoxy-N-(tetrahydrofuran-3-ylmethyl)pyrazolo[5,1-b][1,3]thiazole-7-amine]	33 nM
CCCCN(c1c(SC)nn2c(-c3c(OC)cc(COC)cc3OC)csc12)C1CCOCC1 [Example 106, N-Butyl-3-[2,6-dimethoxy-4-(methoxymethyl)phenyl]-6-(methylthio)-N-(tetrahydro-2H-pyran-4-yl)pyrazolo[5,1-b][1,3]thiazole-7-amine]	83 nM
CCCN(c1c(OC)nn2c(-c3c(OC)cc(C)cc3OC)csc12)C1CCOCC1 [Example 17, 3-(2,6-Dimethoxy-4-methylphenyl)-6-methoxy-N-propyl-N-(tetrahydro-2H-pyran-4-yl)pyrazolo[5,1-b][1,3]thiazole-7-amine]	56 nM
CCCCN(c1c(OC)nn2c(-c3c(OC)cc(COC(C)C)cc3OC)csc12)C1CCOCC1 [Example 75, Butyl-[3-(4-isopropoxymethyl-2,6-dimethoxy-phenyl)-6-methoxy-pyrazolo[5,1-b][1,3]thiazol-7-yl]-(tetrahydro-pyran-4-yl)amine]	74 nM
CCCN(CCC)c1c(C)nn2c(-c3c(OC)cc(COC)cc3OC)c(SC)sc12 [Example 2]	39 nM
COc1cc(C)cc(OC)c1-c1csc2c(N(CC3CC3)CC3CCOC3)c(OC)nn12 (stereo not drawn) [Example 26, N-(Cyclopropylmethyl)-3-(2,6-dimethoxy-4-methylphenyl)-6-methoxy-N-(tetrahydrofuran-3-ylmethyl)pyrazolo[5,1-b][1,3]thiazole-7-amine]	33 nM
CCCN(CCC)c1c(C)nn2c(-c3c(OC)cc(COC)cc3OC)c([S+](C)[O-])sc12 (stereo not drawn) [Example 3, 3-[2,6-Dimethoxy-4-(methoxymethyl)phenyl]-6-methyl-2-(methylsulfinyl)-N,N-dipropylpyrazolo[5,1-b][1,3]thiazole-7-amine]	297 nM
COCc1cc(OC)c(-c2csc3c(N(CC4CC4)C4CCOC4)c(OC)nn23)c(OC)c1 (stereo not drawn) [Example 13, N-(Cyclopropylmethyl)-3-[2,6-dimethoxy-4-(methoxymethyl)phenyl]-6-methoxy-N-(tetrahydrofuran-3-yl)pyrazolo[5,1-b][1,3]thiazole-7-amine]	56 nM

Further lines, results first:

IC50	Structure (SMILES)
53 nM	COCc1cc(OC)c(-c2csc3c(N(CCCF)c4cccnc4)c(OC)nn23)c(OC)c1 [Example 88, 3-[2,6-Dimethoxy-4-(methoxymethyl)phenyl]-N-(3-fluoropropyl)-6-methoxy-N-pyridin-3-ylpyrazolo[5,1-b][1,3]thiazole-7-amine]
36 nM	CCCN(c1cccnc1)c1c(OC)nn2c(-c3c(OC)cc(COC)cc3OC)csc12 [Example 87, 3-[2,6-Dimethoxy-4-(methoxymethyl)phenyl]-6-methoxy-N-propyl-N-pyridin-3-ylpyrazolo[5,1-b][1,3]thiazole-7-amine]
59 nM	COCc1cc(OC)c(-c2csc3c(N(CCOC(C)C)CC4CC4)c(OC)nn23)c(OC)c1 [Example 49, N-(Cyclopropylmethyl)-3-[2,6-dimethoxy-4-(methoxymethyl)phenyl]-N-(2-isopropoxyethyl)-6-methoxypyrazolo[5,1-b][1,3]thiazole-7-amine]
40 nM	CCCCN(CCOC)c1c(OC)nn2c(-c3c(OC)cc(COC)cc3OC)csc12 [Example 28, N-Butyl-3-[2,6-dimethoxy-4-(methoxymethyl)phenyl]-6-methoxy-N-(2-methoxyethyl)pyrazolo[5,1-b][1,3]thiazole-7-amine]
48 nM	CCOCCN(CC1CC1)c1c(OC)nn2c(-c3c(OC)cc(COC)cc3OC)csc12 [Example 45, N-(Cyclopropylmethyl)-3-[2,6-dimethoxy-4-(methoxymethyl)phenyl]-N-(2-ethoxyethyl)-6-methoxypyrazolo[5,1-b][1,3]thiazole-7-amine]
53 nM	CCCN(Cc1ccncc1)c1c(OC)nn2c(-c3c(OC)cc(COC)cc3OC)csc12 [Example 44, 3-[2,6-Dimethoxy-4-(methoxymethyl)phenyl]-6-methoxy-N-propyl-N-(pyridin-4-ylmethyl)pyrazolo[5,1-b][1,3]thiazole-7-amine]
24 nM	CCN(c1c(OC)nn2c(-c3c(OC)cc(COC)cc3OC)csc12)C1CCC1 [Example 59, N-Cyclobutyl-3-[2,6-dimethoxy-4-(methoxymethyl)phenyl]-N-ethyl-6-methoxypyrazolo[5,1-b][1,3]thiazole-7-amine]
36 nM	COCc1cc(OC)c(-c2csc3c(N(CC4CC4)CC(C)OC)c(OC)nn23)c(OC)c1 (stereo not drawn) [Example 51, N-(Cyclopropylmethyl)-3-[2,6-dimethoxy-4-(methoxymethyl)phenyl]-6-methoxy-N-(2-methoxypropyl)pyrazolo[5,1-b][1,3]thiazole-7-amine]
31 nM	COCCN(c1c(OC)nn2c(-c3c(OC)cc(COC)cc3OC)csc12)C1CCC1 [Example 56, N-Cyclobutyl-3-[2,6-dimethoxy-4-(methoxymethyl)phenyl]-6-methoxy-N-(2-methoxyethyl)pyrazolo[5,1-b][1,3]thiazole-7-amine]
33 nM	CCCN(c1ccccn1)c1c(OC)nn2c(-c3c(OC)cc(COC)cc3OC)csc12 [Example 86, 3-[2,6-Dimethoxy-4-(methoxymethyl)phenyl]-6-methoxy-N-propyl-N-pyridin-2-ylpyrazolo[5,1-b][1,3]thiazole-7-amine]
87 nM	COCc1cc(OC)c(-c2csc3c(N(CCC(C)OC)CC4CC4)c(OC)nn23)c(OC)c1 (stereo not drawn) [Example 50, N-(Cyclopropylmethyl)-3-[2,6-dimethoxy-4-(methoxymethyl)phenyl]-6-methoxy-N-(3-methoxybutyl)pyrazolo[5,1-b][1,3]thiazole-7-amine]
52 nM	COCc1cc(OC)c(-c2csc3c(N(CC4CC4)c4cccnc4)c(OC)nn23)c(OC)c1 [Example 89, N-(Cyclopropylmethyl)-3-[2,6-dimethoxy-4-(methoxymethyl)phenyl]-6-methoxy-N-pyridin-3-ylpyrazolo[5,1-b][1,3]thiazole-7-amine]
25 nM	CCCCN(CCOC)c1c(OC)nn2c(-c3c(OC)cc(COCC)cc3OC)csc12 [Example 41, N-Butyl-3-[4-(ethoxymethyl)-2,6-dimethoxyphenyl]-6-methoxy-N-(2-methoxyethyl)pyrazolo[5,1-b][1,3]thiazole-7-amine]
32 nM	CCOCc1cc(OC)c(-c2csc3c(N(CCOC)CC4CC4)c(OC)nn23)c(OC)c1 [Example 40, N-(Cyclopropylmethyl)-3-[4-(ethoxymethyl)-2,6-dimethoxyphenyl]-6-methoxy-N-(2-methoxyethyl)pyrazolo[5,1-b][1,3]thiazole-7-amine]
